This assay deals with THP-1 cells. Briefly: enhancing effect for differentiation-induction from human monocyte to macrophage (THP-1/Mφ system, MTT readout). Also on record: key: ++: enhanced 100% or more; +: enhanced 50-100%; ±: enhanced 25-50%; −: no activity; /: expressed cytoxicity; NT: not tested or under assessment. The note with it: in comparison with enhancing action for differentiation-induction of EM 100 μM. It counts as cell-based. The method, then:
In order to confirm enhancing effect for differentiation-induction of the compounds of the present invention, the enhancing effect for differentiation-induction from human monocyte to macrophage was assayed. Method is performed as follows. THP-1 cells were collected from cultured liquid by centrifugation, adjusted the concentration to 2×10^5 cells/ml using medium (RPMI 1640) and distributed into the 48-well plate at 500 μl/well. PMA solution 10 μl and sample solution 5 μl were added in each well, stirred with mild shaking and incubated at 37° C. for 72-96 hours under 5% CO2. Further MTT 0.5 mg/ml solution was added at 300 μl/well, and incubated at 37° C. for 3 hours under 5% CO2. Supernatant solution was suctioned using the injection tube, added DMSO 500 μl using automatic continuous injector to dissolve formazan completely and transferred each 100 μl to the 96-well plate. The optical absorption was measured using the plate-reader.

`CC[C@H]1OC(=O)[C@H](C)[C@@H](O[C@H]2C[C@@](C)(OC)[C@@H](O)[C@H](C)O2)[C@H](C)[C@@H](O[C@@H]2O[C@H](C)C[C@H](N(C)C)[C@H]2O)[C@](C)(OC)C[C@@H](C)C(=O)[C@H](C)[C@@H](O)[C@]1(C)O` [CAM, reference compound]: the “activities in THP-1/Mφ system, Treated conc. 3 μM” value (shortened to “activities … Treated conc. 3 μM”) is “−”; the “activities in THP-1/Mφ system, Treated conc. 10 μM” value (“activities … Treated conc. 10 μM” for short) is recorded as “+ (enhanced 50-100%)”; the “activities in THP-1/Mφ system, Treated conc. 30 μM” value is on record as “−”.

On to `CCC(O)C(C)(O)C1OC(=O)C(C)C(OC2CC(C)(OC)C(O)C(C)O2)C(C)C(OC2OC(C)CC(N)C2O)C2(C)CC(C)=C(O2)C1C` (stereo not drawn) [EM721, bis-de(3′-N-methyl)-8,9-anhydro-pseudo erythromycin A 6,9-hemiketal], for which the “activities … Treated conc. 3 μM” value is recorded as “−” and the “activities … Treated conc. 10 μM” value was “+ (enhanced 50-100%)”.

`CCNC1CC(C)OC(OC2C(C)C(OC3CC(C)(OC)C(O)C(C)O3)C(C)C(=O)OC(C(C)(O)C(O)CC)C(C)C3=C(C)CC2(C)O3)C1O` (stereo not drawn) [EM722, bis-de(3′-N-methyl)-3′-N-ethyl-8,9-anhydro-pseudoerythromycin A 6,9-hemiketal]: the “activities in THP-1/Mφ system, Treated conc. 0.3 μM” value (“activities … Treated conc. 0.3 μM” below) is reported as “−”; the “activities in THP-1/Mφ system, Treated conc. 1 μM” value (from here on “activities … Treated conc. 1 μM”) was “+ (enhanced 50-100%)”; the “activities … Treated conc. 3 μM” value was “+ (enhanced 50-100%)”; the “activities … Treated conc. 10 μM” value is “++ (enhanced 100% or more)”.

As to `CC[C@@H](O)[C@@](C)(O)[C@@H]1OC(=O)[C@H](C)[C@@H](O[C@H]2C[C@@](C)(OC)[C@@H](O)[C@H](C)O2)[C@H](C)[C@@H](O[C@@H]2O[C@H](C)C[C@H](N(CC)CC)[C@H]2O)[C@@]2(C)CC(C)=C(O2)[C@@H]1C` [EM723, bis-de(3′-N-methyl)-3′,3′-N,N-diethyl-8,9-anhydro-pseudoerythromycin A 6,9-hemiketal], the “activities … Treated conc. 0.3 μM” value is listed as “−”; the “activities … Treated conc. 1 μM” value was “+ (enhanced 50-100%)”; the “activities … Treated conc. 3 μM” value is on record as “+ (enhanced 50-100%)”.

On to `C=CCNC1CC(C)OC(OC2C(C)C(OC3CC(C)(OC)C(O)C(C)O3)C(C)C(=O)OC(C(C)(O)C(O)CC)C(C)C3=C(C)CC2(C)O3)C1O` (stereo not drawn) [EM724, bis-de(3′-N-methyl)-3′-N-allyl-8,9-anhydro-pseudoerythromycin A 6,9-hemiketal], for which the “activities … Treated conc. 0.3 μM” value is given as “−”; the “activities … Treated conc. 1 μM” value is “+ (enhanced 50-100%)”; the “activities … Treated conc. 3 μM” value is “+ (enhanced 50-100%)”; the “activities … Treated conc. 10 μM” value was “++ (enhanced 100% or more)”.

For `C=CCN(CC=C)C1CC(C)OC(OC2C(C)C(OC3CC(C)(OC)C(O)C(C)O3)C(C)C(=O)OC(C(C)(O)C(O)CC)C(C)C3=C(C)CC2(C)O3)C1O` (stereo not drawn) [EM725, bis-de(3′-N-methyl)-3′,3′-N,N-diallyl-8,9-anhydro-pseudoerythromycin A 6,9-hemiketal], the “activities … Treated conc. 1 μM” value is listed as “−”; the “activities … Treated conc. 3 μM” value is “± (enhanced 25-50%)”; the “activities … Treated conc. 10 μM” value was “+ (enhanced 50-100%)”.

Consider `CCC(O)C(C)(O)C1OC(=O)C(C)C(OC2CC(C)(OC)C(O)C(C)O2)C(C)C(OC2OC(C)CC(NC(C)=O)C2O)C2(C)CC(C)=C(O2)C1C` (stereo not drawn) [EM726, bis-de(3′-N-methyl)-3′-N-acetyl-8,9-anhydro-pseudoerythromycin A 6,9-hemiketal], for which the “activities … Treated conc. 0.3 μM” value is listed as “−”; the “activities … Treated conc. 1 μM” value is given as “−”; the “activities … Treated conc. 3 μM” value is listed as “−”; the “activities … Treated conc. 10 μM” value was “−”. Further, the “activities in THP-1/Mφ system, Treated conc. 30 μM” value was “−”.
